Assay results taken from ChEMBL document CHEMBL1132180, “Synthesis, pharmacological and biophysical characterization, and membrane-interaction QSAR analysis of cationic amphiphilic model compounds” (J Med Chem, 1999).

How the values were obtained:
[1] = species on record: Cavia porcellus
Description: Elevation of the threshold alternating current to induce arrhythmia in isolated guinea pig heart.

[2] = Drug induced phase transition temperature with DPPA liposome.; assay type: functional
[3] = physchem; conditions: octanol/water
Description: Partition coefficient (logP) (HPLC)

[4] = species on record: Bos taurus; test: Concentration at which Ca+ binding to phosphatidylserine monolayers is reduced to 50% of control; assay type: functional
[5] = physchem
Description: Dissociation constant (pKa)

[6] = species on record: Cavia porcellus; test: Concentration required to elevate the threshold of alternating current to induce arrhythmia in isolated guinea pig heart by 50%; Vl = Very low activity; assay type: functional
[7] = species on record: Cavia porcellus; test: Concentration required to elevate the threshold of alternating current to induce arrhythmia in isolated guinea pig heart by 50%; Vl = very low activity; assay type: functional
[8] = species on record: Bos taurus; test: Concentration at which Ca+ binding to phosphatidylserine monolayers from bovine brain is reduced to 50% of control; assay type: functional
[9] = species on record: Cavia porcellus; test: Concentration required to elevate the threshold of alternating current to induce arrhythmia in isolated guinea pig heart by 50%; VL = Very low activity; assay type: functional

| SMILES | logP [3] | Log IC50 [4] | pKa [5] | Log IC50 [8] | Log AC50 [1] | Tt [2] | Log AC50 [6] | Log AC50 [7] | Log AC50 [9] |
| --- | --- | --- | --- | --- | --- | --- | --- | --- | --- |
| CN(C)CCC(c1ccccc1)c1ccccc1.Cl | 2.76 | 4.85 uM | 10 |  | 4.37 uM | 308 k |  |  |  |
| COc1ccc(-c2ccc(CCC[N+](C)(C)C)cc2)cc1 | 2.17 |  |  |  |  |  | Very low activity |  |  |
| CN(C)CCCc1ccc(Br)cc1 | 2.37 |  | 10.6 |  |  |  |  |  |  |
| CN(C)CCC(c1ccccc1)c1ccc(-c2ccccc2)cc1 (centres undefined) | 3.36 |  | 9.85 |  |  | 294 k |  |  |  |
| CN(C)CCCc1ccc(-c2ccc(O)cc2)cc1.Cl | 2.1 | 4.4 uM | 9.32 |  | 4.43 uM | 349 k |  |  |  |
| COc1ccc(-c2ccc(CCCN(C)C)cc2)cc1.Cl | 2.95 | 5.4 uM | 9.85 |  | 4.96 uM | 296 k |  |  |  |
| CN(C)CCCc1ccc(N)cc1.Cl | 0.12 |  | 10.9 |  | 3 uM |  |  |  |  |
| CC(C)c1ccc(CCCN(C)C)cc1.Cl | 2.75 |  | 10.5 |  | 4.22 uM | 299 k |  |  |  |
| CN(C)CCCc1ccc2ccccc2c1.Cl | 2.62 | 4.35 uM | 10.3 |  | 4.52 uM | 297 k |  |  |  |
| CN(C)CCCc1ccc(Cl)cc1.Cl | 2.21 |  | 10.6 | 3.85 uM | 4.31 uM | 302 k |  |  |  |
| C[N+](C)(C)CCCc1ccccc1.[Cl-] | 0.44 | 3.4 uM |  |  |  | 307 k | Very low activity |  |  |
| Cc1ccc(CCCN(C)C)cc1.Cl | 2 |  | 10.8 |  | 4.02 uM | 303 k |  |  |  |
| CN(C)CCCc1ccc(O)c(Cl)c1.Cl | 0.97 |  |  |  | 3.82 uM | 294 k |  |  |  |
| CCCc1ccc(CCCN(C)C)cc1.Cl | 2.89 |  | 10.5 |  | 4.85 uM | 295 k |  |  |  |
| CN(C)CCCc1cccnc1.Cl | 0.57 | 3.6 uM | 10.7 |  |  |  |  |  | Very low activity |
| CN(C)CCCc1ccccc1.Cl | 1.5 | 3 uM | 11 |  | 3.55 uM | 3.8 k |  |  |  |

Further lines, with some results ahead:

| logP [3] | Log IC50 [4] | pKa [5] | Log IC50 [8] | SMILES | Log AC50 [1] | Tt [2] | Log AC50 [6] | Log AC50 [7] | Log AC50 [9] |
| --- | --- | --- | --- | --- | --- | --- | --- | --- | --- |
| 2.99 | 5.4 uM | 9.88 |  | CN(C)CCCc1ccc(-c2ccccc2)cc1.Cl | 4.8 uM | 285 k |  |  |  |
| 2.96 | 5.4 uM | 10 |  | CN(C)CCCc1ccc(C(C)(C)C)cc1.Cl | 4.52 uM | 297 k |  |  |  |
| 1.5 | 4.15 uM | 10.7 |  | CN(C)CCCc1ccc([N+](=O)[O-])cc1.Cl |  | 307 k |  | Very low activity |  |
| 0.35 | 2.72 uM |  |  | CN(C)CCCc1ccc(O)cc1.Cl | 3.29 uM | 314 k |  |  |  |
| 2.45 |  | 10.6 |  | CCc1ccc(CCCN(C)C)cc1.Cl | 3.94 uM | 300 k |  |  |  |
| 2.59 |  | 9.93 |  | CN(C)CC(Cc1ccccc1)c1ccccc1.Cl (centres undefined) | 4.13 uM | 309 k |  |  |  |
| 3.45 |  | 9.96 |  | CN(C)CCCc1ccc(-c2ccc(Cl)cc2)cc1.Cl | 5.7 uM |  |  |  |  |
| 3.3 |  | 9.82 |  | CCOc1ccc(-c2ccc(CCCN(C)C)cc2)cc1.Cl | 4.8 uM |  |  |  |  |
| 1.92 |  | 10.8 |  | COc1ccc(CCCN(C)C)cc1Cl.Cl | 4.44 uM |  |  |  |  |
